Results from US10112937B2, “P2X7 modulators and methods of use” (Janssen Pharmaceutica NV, priority 2013, dated 2018).

These compounds were tested against rat P2X7 (Rattus norvegicus (Rat), UniProt Q64663) (assay: Ca2+ flux (FLIPR) in 1321N1 cells expressing recombinant rat P2X7). Settings: 1321N1 cells, recombinant rat P2X7, 250 μM BzATP.
Format: cell-based
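For IC50 in this document: Calcium-4 dye fluorescence change read 180 s after agonist addition, with cells preincubated 30 min with compound and dye in 96-well plates.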

Chain of rat P2X7 (Q64663 whole entry): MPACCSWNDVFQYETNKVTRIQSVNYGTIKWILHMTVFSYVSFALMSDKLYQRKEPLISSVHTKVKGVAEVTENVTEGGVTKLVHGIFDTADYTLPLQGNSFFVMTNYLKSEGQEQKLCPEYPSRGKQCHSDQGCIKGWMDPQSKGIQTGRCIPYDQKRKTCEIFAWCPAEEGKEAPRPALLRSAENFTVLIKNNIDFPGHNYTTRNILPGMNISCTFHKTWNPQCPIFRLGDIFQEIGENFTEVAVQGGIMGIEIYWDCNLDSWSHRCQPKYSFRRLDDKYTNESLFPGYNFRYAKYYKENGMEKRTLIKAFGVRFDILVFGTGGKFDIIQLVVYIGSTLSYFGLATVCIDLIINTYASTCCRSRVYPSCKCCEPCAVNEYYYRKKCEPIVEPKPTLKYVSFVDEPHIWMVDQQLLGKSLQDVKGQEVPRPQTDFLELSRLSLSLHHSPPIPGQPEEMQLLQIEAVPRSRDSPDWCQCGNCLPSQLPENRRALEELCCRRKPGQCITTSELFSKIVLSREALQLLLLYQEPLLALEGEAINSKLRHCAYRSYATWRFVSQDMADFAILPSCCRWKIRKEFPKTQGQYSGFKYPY

`CC1c2ncn(-c3ncccn3)c2CCN1C(=O)c1cccc(C(F)(F)F)c1Cl` (centres unmarked) [Example 23, (2-Chloro-3-(trifluoromethyl)phenyl)(4-methyl-1-(pyrimidin-2-yl)-6,7-dihydro-1H-imidazo[4,5-c]pyridin-5(4H)-yl)methanone] and `CC1c2ncn(-c3cnccn3)c2CCN1C(=O)c1cccc(C(F)(F)F)c1F` (centres unmarked) [Example 14, (2-Fluoro-3-(trifluoromethyl)phenyl)(4-methyl-1-(pyrazin-2-yl)-6,7-dihydro-1H-imidazo[4,5-c]pyridin-5(4H)-yl)methanone] are within 1.5-fold of each other in IC50: 113 nM for the first, 122 nM for the second.

First: Cc1ccnc(-n2nnc3c2CCN(C(=O)c2ccnc(C(F)(F)F)c2F)[C@H]3C)c1 (single isomer, unassigned) [Example 357, (S*)-(3-fluoro-2-(trifluoromethyl)pyridin-4-yl)(4-methyl-1-(4-methylpyridin-2-yl)-6,7-dihydro-1H-[1,2,3]triazolo[4,5-c]pyridin-5(4H)-yl)methanone]
Second: Cc1cc(-n2nnc3c2CCN(C(=O)c2ccc(Cl)c(C(F)(F)F)c2)C3C)ncc1F (centres unmarked) [Example 364, (4-chloro-3-(trifluoromethyl)phenyl)(1-(5-fluoro-4-methylpyridin-2-yl)-4-methyl-6,7-dihydro-1H-[1,2,3]triazolo[4,5-c]pyridin-5(4H)-yl)methanone]
The IC50 of the first is 2.8-fold higher: 16200 nM for the first, 5790 nM for the second.

Going from `O=C(c1cccc(C(F)(F)F)c1Cl)N1CCc2c(nnn2-c2ccccn2)C1` [Example 63, 5-{[2-Chloro-3-(trifluoromethyl)phenyl]carbonyl}-1-pyridin-2-yl-4,5,6,7-tetrahydro-1H-[1,2,3]triazolo[4,5-c]pyridine] to `CN(C)CC1c2ncn(-c3ccccn3)c2CCN1C(=O)c1cccc(C(F)(F)F)c1Cl` (centres unmarked) [Example 31, 1-(5-{[2-Chloro-3-(trifluoromethyl)phenyl]carbonyl}-1-pyridin-2-yl-4,5,6,7-tetrahydro-1H-imidazo[4,5-c]pyridin-4-yl)-N,N-dimethylmethanamine], the IC50 falls from 1450 nM to 333 nM (4.4-fold). The second is the more potent here.

Going from `CN(C)C(=O)C1c2ncn(-c3ccccn3)c2CCN1C(=O)c1cccc(C(F)(F)F)c1Cl` (centres unmarked) [Example 34, 5-{[2-Chloro-3-(trifluoromethyl)phenyl]carbonyl}-N,N-dimethyl-1-pyridin-2-yl-4,5,6,7-tetrahydro-1H-imidazo[4,5-c]pyridine-4-carboxamide] to `CCOC(=O)C1c2ncn(-c3ccccc3)c2CCN1C(=O)c1cccc(Cl)c1Cl` (centres unmarked) [Example 27, Ethyl 5-(2,3-dichlorobenzoyl)-1-phenyl-4,5,6,7-tetrahydro-1H-imidazo[4,5-c]pyridine-4-carboxylate], the IC50 rises from 279 nM to 2810 nM (10-fold). The first is the more potent here.

Each compound was assayed against human P2X7 (Homo sapiens (Human), UniProt Q99572) (assay: P2X7 antagonism in human PBMCs (IL-1β release after LPS + Bz-ATP, ELISA)). Settings: 10 μM test compound, human PBMCs, LPS + Bz-ATP.
Chain of human P2X7 (Q99572 whole entry): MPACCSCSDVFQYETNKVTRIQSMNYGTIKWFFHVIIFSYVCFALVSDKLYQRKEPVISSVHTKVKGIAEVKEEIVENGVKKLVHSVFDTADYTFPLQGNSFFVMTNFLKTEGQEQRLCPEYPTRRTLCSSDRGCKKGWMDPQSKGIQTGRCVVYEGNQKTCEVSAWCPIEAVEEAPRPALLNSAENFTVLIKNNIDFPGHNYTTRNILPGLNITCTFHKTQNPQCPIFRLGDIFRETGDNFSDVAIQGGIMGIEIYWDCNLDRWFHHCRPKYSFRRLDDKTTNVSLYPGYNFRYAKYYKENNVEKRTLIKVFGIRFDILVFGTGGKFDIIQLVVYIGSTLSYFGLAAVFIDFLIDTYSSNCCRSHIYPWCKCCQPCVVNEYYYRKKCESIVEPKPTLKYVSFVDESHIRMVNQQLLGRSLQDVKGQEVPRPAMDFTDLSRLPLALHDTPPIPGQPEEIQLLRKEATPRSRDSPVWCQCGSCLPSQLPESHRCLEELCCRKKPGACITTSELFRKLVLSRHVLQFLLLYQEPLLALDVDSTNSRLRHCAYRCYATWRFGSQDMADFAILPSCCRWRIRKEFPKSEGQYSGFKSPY
Format: cell-based

Going from `CCn1ccc(-n2nnc3c2CCN(C(=O)c2ccnc(C(F)(F)F)c2Cl)[C@H]3C)n1` [Example 411, (S)-(3-chloro-2-(trifluoromethyl)pyridin-4-yl)(1-(1-ethyl-1H-pyrazol-3-yl)-4-methyl-6,7-dihydro-1H-[1,2,3]triazolo[4,5-c]pyridin-5(4H)-yl)methanone] to `CCn1nccc1-n1nnc2c1C[C@H](C)N(C(=O)c1cccc(C(F)(F)F)c1Cl)C2` [Example 406, (S)-(2-chloro-3-(trifluoromethyl)phenyl)(1-(1-ethyl-1H-pyrazol-5-yl)-6-methyl-6,7-dihydro-1H-[1,2,3]triazolo[4,5-c]pyridin-5(4H)-yl)methanone], the “PBMC 10 μM (% control)” value falls from 69.6 % control to −3.6 % control.

Same assay, conditions: human PBMCs, test compound 1 μM

First: O=C(c1cccc(Cl)c1Cl)N1CCc2c(ncn2-c2ccccc2)C1 [Example 3, (2,3-Dichlorophenyl)(1-phenyl-6,7-dihydro-1H-imidazo[4,5-c]pyridin-5(4H)-yl)methanone]
Second: Cn1nc2c(c1-c1ccccc1)CCN(C(=O)c1cccc(Cl)c1Cl)C2 [Example 102, 6-[(2,3-Dichlorophenyl)carbonyl]-2-methyl-3-phenyl-4,5,6,7-tetrahydro-2H-pyrazolo[3,4-c]pyridine]
The “PBMC 1 μM (% control)” value of the first is higher: 23.0 % control for the first, 18.0 % control for the second.

`CC1c2nnn(-c3cnccn3)c2C=CN1C(=O)c1cccc(C(F)(F)F)c1Cl` (centres unmarked) [Example 72, 5-{[2-Chloro-3-(trifluoromethyl)phenyl]carbonyl}-4-methyl-1-pyrazin-2-yl-4,5-dihydro-1H-[1,2,3]triazolo[4,5-c]pyridine] was tested, and the “PBMC 1 μM (% control)” value was −5.7 % control.

Same assay, conditions: human PBMCs, test compound 10 μM

Compared with `CC1c2ncn(-c3ncccn3)c2CCN1C(=O)c1cccc(C(F)(F)F)c1Cl` (centres unmarked) [Example 23, (2-Chloro-3-(trifluoromethyl)phenyl)(4-methyl-1-(pyrimidin-2-yl)-6,7-dihydro-1H-imidazo[4,5-c]pyridin-5(4H)-yl)methanone], `C[C@H]1c2nnn(-c3ncccn3)c2CCN1C(=O)c1cccc(C(F)(F)F)c1Cl` (single isomer, unassigned) [Example 87, (4S*)-5-{[2-Chloro-3-(trifluoromethyl)phenyl]carbonyl}-4-methyl-1-pyrimidin-2-yl-4,5,6,7-tetrahydro-1H-[1,2,3]triazolo[4,5-c]pyridine] is lower in “PBMC 10 μM (% control)” value: 6.4 % control for the first, 3.3 % control for the second.

Going from `Cc1ccnc(-n2nnc3c2CCN(C(=O)c2ccnc(C(F)(F)F)c2F)[C@H]3C)c1` (single isomer, unassigned) [Example 357, (S*)-(3-fluoro-2-(trifluoromethyl)pyridin-4-yl)(4-methyl-1-(4-methylpyridin-2-yl)-6,7-dihydro-1H-[1,2,3]triazolo[4,5-c]pyridin-5(4H)-yl)methanone] to `Cc1ccnc(-n2nnc3c2CCN(C(=O)c2ccnc(C(F)(F)F)c2Cl)[C@@H]3C)c1` (single isomer, unassigned) [Example 359, (R*)-(3-chloro-2-(trifluoromethyl)pyridin-4-yl)(4-methyl-1-(4-methylpyridin-2-yl)-6,7-dihydro-1H-[1,2,3]triazolo[4,5-c]pyridin-5(4H)-yl)methanone], the “PBMC 10 μM (% control)” value falls from 42.4 % control to −8.2 % control.

Compared with `Cc1cc(-n2nnc3c2CCN(C(=O)c2ccc(Cl)c(C(F)(F)F)c2)C3C)ncc1F` (centres unmarked) [Example 364, (4-chloro-3-(trifluoromethyl)phenyl)(1-(5-fluoro-4-methylpyridin-2-yl)-4-methyl-6,7-dihydro-1H-[1,2,3]triazolo[4,5-c]pyridin-5(4H)-yl)methanone], `Cc1ccnc(-n2nnc3c2CCN(C(=O)c2cccc(C(F)(F)F)c2Cl)C3C)c1` (centres unmarked) [Example 299, (2-chloro-3-(trifluoromethyl)phenyl)(4-methyl-1-(4-methylpyridin-2-yl)-6,7-dihydro-1H-[1,2,3]triazolo[4,5-c]pyridin-5(4H)-yl)methanone] is lower in “PBMC 10 μM (% control)” value: 4.8 % control for the first, 1.5 % control for the second.

Compared with `Cc1cccnc1-n1nnc2c1CCN(C(=O)c1cccc(C(F)(F)F)c1Cl)C2C` (centres unmarked) [Example 259, (2-Chloro-3-(trifluoromethyl)phenyl)(4-methyl-1-(3-methylpyridin-2-yl)-6,7-dihydro-1H-[1,2,3]triazolo[4,5-c]pyridin-5(4H)-yl)methanone], `Cc1cccnc1-n1nnc2c1CCN(C(=O)c1cccc(C(F)(F)F)c1Cl)[C@@H]2C` (single isomer, unassigned) [Example 291, (R*)-(2-chloro-3-(trifluoromethyl)phenyl)(4-methyl-1-(3-methylpyridin-2-yl)-6,7-dihydro-1H-[1,2,3]triazolo[4,5-c]pyridin-5(4H)-yl)methanone] is lower in “PBMC 10 μM (% control)” value: −3.5 % control for the first, −7.1 % control for the second.

Going from `Cc1cc(C)nc(-n2nnc3c2CCN(C(=O)c2cccc(Cl)c2Cl)C3C)c1` (centres unmarked) [Example 231, (2,3-dichlorophenyl)(1-(4,6-dimethylpyridin-2-yl)-4-methyl-6,7-dihydro-1H-[1,2,3]triazolo[4,5-c]pyridin-5(4H)-yl)methanone] to `Cc1cccc(-n2nnc3c2CCN(C(=O)c2cccc(C(F)(F)F)c2Cl)[C@@H]3C)n1` (single isomer, unassigned) [Example 226, (R*)-(2-chloro-3-(trifluoromethyl)phenyl)(4-methyl-1-(6-methylpyridin-2-yl)-6,7-dihydro-1H-[1,2,3]triazolo[4,5-c]pyridin-5(4H)-yl)methanone], the “PBMC 10 μM (% control)” value rises from −4.8 % control to 58.0 % control.

First: C[C@@H]1Cc2c(nnn2-c2ccc(F)cc2)[C@H](C)N1C(=O)c1cccc(C(F)(F)F)c1Cl [Example 286, (2-chloro-3-(trifluoromethyl)phenyl)((4S,6R)-1-(4-fluorophenyl)-4,6-dimethyl-6,7-dihydro-1H-[1,2,3]triazolo[4,5-c]pyridin-5(4H)-yl)methanone]
Second: C[C@@H]1Cc2c(nnn2-c2ccn[nH]2)[C@H](C)N1C(=O)c1cccc(C(F)(F)F)c1Cl [Example 297, (2-chloro-3-(trifluoromethyl)phenyl)((4S,6R)-4,6-dimethyl-1-(1H-pyrazol-5-yl)-6,7-dihydro-1H-[1,2,3]triazolo[4,5-c]pyridin-5(4H)-yl)methanone]
The “PBMC 10 μM (% control)” value of the first is higher: 5.8 % control for the first, 2.6 % control for the second.

First: C[C@H]1Cc2c(nnn2-c2ncc(F)cn2)CN1C(=O)c1ccnc(C(F)(F)F)c1Cl (single isomer, unassigned) [Example 183, (R*)-(3-chloro-2-(trifluoromethyl)pyridin-4-yl)(1-(5-fluoropyrimidin-2-yl)-6-methyl-6,7-dihydro-1H-[1,2,3]triazolo[4,5-c]pyridin-5(4H)-yl)methanone]
Second: C[C@H]1Cc2c(nnn2-c2ncc(F)cn2)CN1C(=O)c1cc(F)cc(C(F)(F)F)c1 [Example 307, (S)-(3-fluoro-5-(trifluoromethyl)phenyl)(1-(5-fluoropyrimidin-2-yl)-6-methyl-6,7-dihydro-1H-[1,2,3]triazolo[4,5-c]pyridin-5(4H)-yl)methanone]
The “PBMC 10 μM (% control)” value of the first is lower: −1.2 % control for the first, 2.2 % control for the second.

Going from `CC1CN(C(=O)c2cccc(C(F)(F)F)c2Cl)Cc2nnn(-c3ccc(F)cc3)c21` (centres unmarked) [Example 246, (2-Chloro-3-(trifluoromethyl)phenyl)(1-(4-fluorophenyl)-7-methyl-6,7-dihydro-1H-[1,2,3]triazolo[4,5-c]pyridin-5(4H)-yl)methanone] to `CC1Cc2c(nnn2-c2cc(F)ccn2)CN1C(=O)c1cccc(C(F)(F)F)c1Cl` (centres unmarked) [Example 176, (2-Chloro-3-(trifluoromethyl)phenyl)(1-(4-fluoropyridin-2-yl)-6-methyl-6,7-dihydro-1H-[1,2,3]triazolo[4,5-c]pyridin-5(4H)-yl)methanone], the “PBMC 10 μM (% control)” value rises from −3.1 % control to 7.3 % control.

First: O=C(c1cccc(Cl)c1Cl)N1CCc2c(ncn2-c2ccn[nH]2)C1 [Example 60, 5-[(2,3-Dichlorophenyl)carbonyl]-1-(1H-pyrazol-5-yl)-4,5,6,7-tetrahydro-1H-imidazo[4,5-c]pyridine]
Second: Cn1ccc(-n2nnc3c2CCN(C(=O)c2cccc(C(F)(F)F)c2Cl)C3)n1 [Example 127, (2-Chloro-3-(trifluoromethyl)phenyl)(1-(1-methyl-1H-pyrazol-3-yl)-6,7-dihydro-1H-[1,2,3]triazolo[4,5-c]pyridin-5(4H)-yl)methanone]
The “PBMC 10 μM (% control)” value of the first is lower: 8.4 % control for the first, 9.2 % control for the second.

Same assay, conditions: test compound 10 μM, LPS 30 ng/ml + 0.5 mM Bz-ATP

In the case of `C[C@H]1Cc2c(nnn2-c2ncc(F)cn2)CN1C(=O)c1ccnc(C(F)(F)F)c1Cl` (single isomer, unassigned) [Example 183, (R*)-(3-chloro-2-(trifluoromethyl)pyridin-4-yl)(1-(5-fluoropyrimidin-2-yl)-6-methyl-6,7-dihydro-1H-[1,2,3]triazolo[4,5-c]pyridin-5(4H)-yl)methanone], the “PBMC 10 μM (% control)” value is reported as −1.2 % control.
